One compound from publication PMC9867837 (Cancer letters, 2022) can be followed below.

Molecules are shown by their SMILES.

The Kd is the concentration at which binding is half-saturated. In general, inhibition refers to the relative decrease from the control value, in per cent. A low value points to little suppression. Broadly, the IC50 is the concentration that inhibits the measured activity by half. A low value points to inhibition by little substance.

Series [1] addresses T1, purified recombinant Stat3 (rStat3) (Homo sapiens, UniProt P40763).
T1 construct: made in house; host or cells: E. coli BL21(DE3)
Put plainly: Isothermal titration calorimetry (ITC). The class given is binding. How it is done:
The ITC experiment was carried out as previously described. Details are provided in Supplementary Information, “Methods”. […]
1.2.10. Isothermal titration calorimetry (ITC)
The ITC experiment was carried out as previously described with some modification using Malvern Panalytical MicroCal PEAQ-ITC (United Kingdom). Studies were done at 25 °C. Briefly, H182, previously suspended in 100 % DMSO were diluted in 20 mM HEPES, 150 mM KCl buffer so the final DMSO was 5 %. To avoid buffer mismatch, Stat3 in HEPES buffer was diluted in HEPES buffer with 5% DMSO final concentration. Three hundred microliter (300 μL) aliquots of 3.0 μM Stat3 w ere placed in the cell and titrated with 250 μM H182. Titrations took place by injecting 2 μL H182 in a 2.5 min injection for the titration peak to return to the baseline. The K D was calculated using the MicroCal PEAQ-ITC analysis […]
software and Prism GraphPad software (San Diego, CA), using the one-site model. Control experiments were carried out by titration H182 into buffer, buffer into Stat3, and buffer into buffer. […]
DMSO (control) was added, and then immediately, cells were imaged with a Canon Powershot A640 digital camera under a phase contrast with the Zeiss Axiovert 200 inverted microscope at 10X magnification and noted as the zero time-point. Following culture for 22 h to allow cells to migrate into the denuded area, the culture was then imaged again at the same field that was marked on the plate.
1.2.12. Annexin V binding/apoptosis and flow cytometric analysis
For apoptosis analysis, annexin V/propidium iodide (PI) staining was performed. Briefly, cells in culture and untreated (DMSO, control) or treated with H182 were harvested and stained with FITC -annexin V (Apoptosis Detection Kit), according to manufacturer’s instructions (BD Biosciences, San Jose, CA). […]
1.2.13. Assessment of Physicochemical Properties
Solubility, human (HLM) and mouse liver microsomal (MLM), and plasma stability studies were performed by Eurofins Cerep Panlabs and Eurofin Discovery Services (www.eurofins.com/PharmaDiscovery), while
(Isothermal titration calorimetry measures the heat released or taken up as one component is titrated into another.)

A further series deals with MDA-MB-231 cells. As to the kind of experiment: Immunoblotting for cleaved PARP and caspase 3. The class given is cell-based, human. To be noted: 1 μM for 0–24 h or increasing concentration for 2 h. How it is done:
These studies were performed as previously described. Details are presented in Supplementary Information, “Methods”.
Aberrantly-active Stat3 promotes tumor cell growth and proliferation, survival, migration, invasion, and metastasis.
(§1) These studies were performed as previously described [1 -3] . Briefly, snap-frozen tumor tissues or cultured cells treated or not were harvested and whole-cell or tissue lysates were prepared in radioimmunoprecipitation assay (RIPA) buffer. Samples of equal total protein were subjected to SDS - PAGE and immunoblotting analysis. Primary antibodies used were anti- Stat3, pY705-Stat3, pS727Stat3, […]
(§2) Akt, pT202/Y204Erk1/2 (p44/42), Erk1/2, PARP , caspase 3, c-Myc, survivin, VEGF, β-actin, α/β-tubulin, and GAPDH. For the studies of the effects of cell density and confluence on pY705Stat3, cells were seeded […] in culture dishes. The next day, cells were untreated (DMSO control, […]
0.1%) or treated at the same time with 1 or 2 µM H182, allowed to incubate for the indicated time and then harvested for whole-cell lysate preparation and SDS -PAGE / immunoblotting analy sis. […]
(§3) concentration of H182 for 6 h and then treated with 0- 100 nM docetaxel or 0-20 µM cisplatin for a total of 72 h. Viable cell numbers were assessed by a CyQuant cell proliferation kit according to the manufacturer’s instructions (Thermo/Life Technologies Corp, Carlsbad, CA). […]
(In western blotting, separated proteins are transferred to a membrane and probed.)

Series [2] deals with T2, norepinephrine transporter (NET) (Homo sapiens, UniProt P23975).
T2 construct: Eurofins-CEREP (SafetyScreen44 panel)
As to the kind of experiment: CEREP SafetyScreen44, norepinephrine transporter. The class given is binding.

The target in another series is T3, hERG (Homo sapiens, UniProt Q12809).
T3 construct: Eurofins-CEREP (contract research organisation that ran the assay)
Put plainly: CEREP SafetyScreen44, hERG. To be noted: 10 μM H182. The class given is binding. How it is done:
The in vivo activity of a compound is influenced by its overall bioavailability, which is also driven by parameters, such as solubility, permeability, and metabolism. […] These values are all above the industry cut-off of 60 μg/ml. […] It has CLint in human hepatocytes of 16 μL/min/10^6 cells, which falls into moderate stability range [43].

Another series deals with Stat3 (Homo sapiens, UniProt P40763). As to the kind of experiment: Stat3 activity and target gene expression in extracted tumor tissues. The format is in vivo, mouse. On the set-up: Tissue lysates of equal total protein prepared from the extracted tumors; from tissue; host or cells: extracted tumour tissue from treated and untreated mice. How it is done:
We then profiled tumor tissues for Stat3 activity and Stat3 target gene expression as pharmacodynamic markers of therapeutic response. Tissue lysates of equal total protein prepared from the extracted tumors were subjected to Stat3 DNA-binding assay/EMSA analysis or SDS-PAGE and immunoblotting analysis.
as §1, §2, §3

T1 sequence (P40763 127-711): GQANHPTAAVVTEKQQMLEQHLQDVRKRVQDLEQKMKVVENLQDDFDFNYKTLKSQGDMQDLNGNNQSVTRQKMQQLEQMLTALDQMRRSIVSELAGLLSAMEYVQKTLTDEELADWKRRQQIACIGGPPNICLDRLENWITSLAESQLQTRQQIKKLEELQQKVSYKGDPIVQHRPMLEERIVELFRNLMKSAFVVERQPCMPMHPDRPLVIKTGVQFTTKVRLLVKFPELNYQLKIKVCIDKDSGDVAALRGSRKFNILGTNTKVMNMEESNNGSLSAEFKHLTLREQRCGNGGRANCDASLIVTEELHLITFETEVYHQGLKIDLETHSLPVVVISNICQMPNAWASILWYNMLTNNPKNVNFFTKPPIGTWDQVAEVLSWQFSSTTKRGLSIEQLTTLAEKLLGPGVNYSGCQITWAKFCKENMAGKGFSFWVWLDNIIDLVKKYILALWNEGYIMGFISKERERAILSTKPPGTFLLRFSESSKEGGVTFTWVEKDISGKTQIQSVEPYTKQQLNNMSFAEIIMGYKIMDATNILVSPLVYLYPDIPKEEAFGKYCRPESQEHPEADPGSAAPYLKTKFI
Chain of Stat3 (P40763 2-770 limits assumed): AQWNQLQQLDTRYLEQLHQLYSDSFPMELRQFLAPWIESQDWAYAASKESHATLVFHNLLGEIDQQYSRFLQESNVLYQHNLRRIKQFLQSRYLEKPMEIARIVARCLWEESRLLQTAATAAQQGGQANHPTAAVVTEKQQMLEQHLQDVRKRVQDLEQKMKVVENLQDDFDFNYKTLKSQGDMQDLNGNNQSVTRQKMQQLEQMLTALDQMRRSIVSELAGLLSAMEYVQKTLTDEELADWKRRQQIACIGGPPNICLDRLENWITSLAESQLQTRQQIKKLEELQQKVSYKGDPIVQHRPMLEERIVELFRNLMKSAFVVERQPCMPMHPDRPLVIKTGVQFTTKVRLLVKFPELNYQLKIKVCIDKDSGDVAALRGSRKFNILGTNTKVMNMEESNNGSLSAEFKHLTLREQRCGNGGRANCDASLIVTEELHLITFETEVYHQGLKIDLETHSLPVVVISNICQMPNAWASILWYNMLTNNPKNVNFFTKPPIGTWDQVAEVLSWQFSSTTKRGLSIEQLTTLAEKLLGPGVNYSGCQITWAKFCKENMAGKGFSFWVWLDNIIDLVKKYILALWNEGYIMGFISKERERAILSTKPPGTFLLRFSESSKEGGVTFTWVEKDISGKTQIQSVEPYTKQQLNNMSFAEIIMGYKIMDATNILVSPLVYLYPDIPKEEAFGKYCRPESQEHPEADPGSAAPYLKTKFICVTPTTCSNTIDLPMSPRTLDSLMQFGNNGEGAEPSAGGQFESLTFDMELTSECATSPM
T2 sequence (P23975 whole entry): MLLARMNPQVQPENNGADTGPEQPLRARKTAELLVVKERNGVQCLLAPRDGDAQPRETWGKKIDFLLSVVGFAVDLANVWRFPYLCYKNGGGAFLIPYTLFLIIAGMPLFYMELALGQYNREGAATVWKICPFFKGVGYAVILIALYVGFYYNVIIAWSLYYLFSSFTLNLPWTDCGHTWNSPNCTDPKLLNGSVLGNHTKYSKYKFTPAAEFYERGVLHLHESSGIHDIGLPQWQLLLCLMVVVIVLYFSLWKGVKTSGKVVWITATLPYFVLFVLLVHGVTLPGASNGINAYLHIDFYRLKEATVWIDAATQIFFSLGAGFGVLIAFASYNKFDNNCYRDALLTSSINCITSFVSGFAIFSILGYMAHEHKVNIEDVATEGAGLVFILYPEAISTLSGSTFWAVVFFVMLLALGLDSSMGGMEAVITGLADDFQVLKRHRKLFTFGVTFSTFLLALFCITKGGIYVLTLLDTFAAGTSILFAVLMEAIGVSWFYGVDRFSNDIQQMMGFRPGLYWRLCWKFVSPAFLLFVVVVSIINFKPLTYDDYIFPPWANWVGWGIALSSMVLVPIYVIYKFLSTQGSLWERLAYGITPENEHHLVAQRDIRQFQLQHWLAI
T3 sequence (Q12809 whole entry): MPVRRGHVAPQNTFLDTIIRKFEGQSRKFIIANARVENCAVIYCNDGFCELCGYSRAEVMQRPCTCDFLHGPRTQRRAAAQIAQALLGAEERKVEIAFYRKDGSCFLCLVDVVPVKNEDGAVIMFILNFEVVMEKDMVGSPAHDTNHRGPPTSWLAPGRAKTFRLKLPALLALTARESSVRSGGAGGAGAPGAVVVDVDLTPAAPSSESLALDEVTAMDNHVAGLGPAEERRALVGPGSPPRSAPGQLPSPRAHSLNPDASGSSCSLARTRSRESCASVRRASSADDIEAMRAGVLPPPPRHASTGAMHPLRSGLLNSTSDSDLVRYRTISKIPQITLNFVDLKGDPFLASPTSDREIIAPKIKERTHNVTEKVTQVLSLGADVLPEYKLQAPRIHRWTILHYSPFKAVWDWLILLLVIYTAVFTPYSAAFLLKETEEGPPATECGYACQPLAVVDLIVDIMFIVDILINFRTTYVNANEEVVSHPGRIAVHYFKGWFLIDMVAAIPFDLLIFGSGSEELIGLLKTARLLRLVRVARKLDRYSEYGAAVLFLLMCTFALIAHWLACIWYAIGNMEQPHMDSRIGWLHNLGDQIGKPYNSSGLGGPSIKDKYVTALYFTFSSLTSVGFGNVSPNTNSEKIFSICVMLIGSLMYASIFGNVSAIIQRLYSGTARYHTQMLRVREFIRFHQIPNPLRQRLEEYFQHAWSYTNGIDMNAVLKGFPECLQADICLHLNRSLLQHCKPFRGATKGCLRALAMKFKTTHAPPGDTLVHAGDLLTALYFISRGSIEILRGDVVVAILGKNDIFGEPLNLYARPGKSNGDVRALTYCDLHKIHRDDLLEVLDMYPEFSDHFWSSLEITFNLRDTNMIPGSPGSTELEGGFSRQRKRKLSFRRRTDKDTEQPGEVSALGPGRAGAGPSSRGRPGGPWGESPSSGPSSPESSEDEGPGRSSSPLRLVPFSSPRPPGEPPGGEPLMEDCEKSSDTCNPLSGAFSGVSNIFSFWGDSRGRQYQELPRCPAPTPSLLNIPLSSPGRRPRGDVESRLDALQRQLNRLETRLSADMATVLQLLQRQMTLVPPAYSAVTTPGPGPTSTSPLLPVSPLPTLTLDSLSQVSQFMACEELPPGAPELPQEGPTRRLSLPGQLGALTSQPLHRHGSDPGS

In the case of `O=C([C@H]1CCN1S(=O)(=O)c1c(F)c(F)c(F)c(F)c1F)N(Cc1ccc(C2CCCCC2)cn1)c1ccc2c(=O)[nH]ncc2c1` [Compound H182], in series [1], the ΔG is -7.79 kcal/mol, the ΔH was -4.16 kcal/mol and the “−TΔS” value is -3.63 kcal/mol. Moreover, in series [1] (one-site model, 25 °C), the Kd is 1.97 µM. For the same compound, the “Cleaved PARP and caspase 3” value in the series on MDA-MB-231 cells was “moderate levels”. In addition, in series [2] (10 μM H182), the inhibition at 10 µM was > 80%. Further, in series [2] (SafetyScreen44 follow-up dose-response), the IC50 is 0.4 µM. In addition, on hERG, the inhibition at 10 µM is > 80%. For the same compound, the “Stat3 DNA-binding activity in tumor tissues” value on Stat3 (EMSA of tumor tissue lysates, treated vs untreated control) was “suppressed Stat3 DNA-binding activity in tumor tissues”. For the same compound, the “Expression of c-Myc, VEGF, and survivin in tumor tissues” value at Stat3 (immunoblotting of tumor tissue lysates) was “suppression of the expression of Stat3 downstream genes”.
